Reference: ChEMBL document CHEMBL5214933, “Discovery of Selenium-Containing STING Agonists as Orally Available Antitumor Agents” (J Med Chem, 2022)
pEC50: −log10 of the molar value. In brackets after ≈: the same amount, converted by molar mass. Activity calls are given as the source filed them. No cut-off for these calls is given here.

What was measured:
[1] = system: Stimulator of interferon genes protein (Homo sapiens), Q86WV6 [UNDEFINED MUTATION]; test: Binding affinity to recombinant human STING H232 variant expressed in Escherichia coli BL21 (DE3) assessed as thermal stabilization by measuring change in melting temperature at 2 mM incubated for 30 mins by SYPRO orange dye based differential scanning fluorimetry assay
[2] = target: T1, Stimulator of interferon genes protein (Homo sapiens, UniProt Q86WV6); test: Agonist activity at STING in human THP-1 cells harboring IRF-inducible luciferase reporter construct assessed as fold change in ISG signalling at 20 uM incubated for 12 hrs by Quanti-luc reagent based assay relative to control; type: cell-based; conditions: filed as agonist
[3] = target: T1, Stimulator of interferon genes protein; test: Agonist activity at STING in human THP-1 cells harboring IRF-inducible luciferase reporter construct assessed as increase in ISG signalling incubated for 12 hrs by Quanti-luc reagent based assay; type: cell-based
[4] = target: T2, Stimulator of interferon genes protein (Mus musculus) (UniProt Q3TBT3); test: Agonist activity at STING in mouse RAW264.7 cells harboring IRF-inducible luciferase reporter construct assessed as increase in ISG signalling at 20 uM incubated for 12 hrs by Quanti-luc reagent based assay; type: cell-based; conditions: filed as agonist
T2 sequence (whole entry): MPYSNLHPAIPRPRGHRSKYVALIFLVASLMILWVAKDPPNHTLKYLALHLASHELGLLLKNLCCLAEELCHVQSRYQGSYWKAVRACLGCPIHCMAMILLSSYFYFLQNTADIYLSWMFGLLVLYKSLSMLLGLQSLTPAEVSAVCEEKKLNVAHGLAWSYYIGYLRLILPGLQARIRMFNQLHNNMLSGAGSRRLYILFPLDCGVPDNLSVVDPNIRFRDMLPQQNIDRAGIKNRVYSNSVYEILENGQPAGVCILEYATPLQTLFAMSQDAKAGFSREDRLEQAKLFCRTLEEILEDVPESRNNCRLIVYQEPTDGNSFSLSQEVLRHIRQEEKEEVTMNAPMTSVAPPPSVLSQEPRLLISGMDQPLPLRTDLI

[5] = target: T1, Stimulator of interferon genes protein; test: Agonist activity at STING in cGAS knockout human THP-1 cells harboring IRF-inducible luciferase reporter construct assessed as increase in ISG signalling at 20 uM incubated for 12 hrs by Quanti-luc reagent based assay; type: cell-based; conditions: filed as agonist
[6] = Half life in Sprague-Dawley rat at 5 mg/kg, iv measured for 1440 mins by LC-MS/MS analysis; type: ADME, organism-based; conditions: in vivo
[7] = Permeability of the compound in PBS buffer incubated for 5 hrs by PAMPA-based LC-MS/MS analysis; type: ADME; conditions: read-out: permeability
[8] = Oral bioavailability in Sprague-Dawley rat at 50 mg/kg measured for 1440 mins by LC-MS/MS analysis; type: ADME, organism-based; conditions: in vivo
[9] = Cmax in Sprague-Dawley rat at 50 mg/kg, po measured for 1440 mins by LC-MS/MS analysis; type: ADME, organism-based; set-up: time 1440 min, dose 50 mg/kg, route po; conditions: in vivo
[10] = Clearance in Sprague-Dawley rat at 5 mg/kg, iv measured for 1440 mins by LC-MS/MS analysis; type: ADME, organism-based; conditions: in vivo
[11] = Aqueous solubility of compound at 3 mg incubated for 24 hrs under shaking condition by RP-HPLC analysis; type: physicochemical; conditions: water
[12] = Stability in rat liver microsomes assessed as parent compound remaining at 1 uM incubated for 2 hrs in presence of NADPH by LC-MS/MS analysis; type: ADME, Microsome; conditions: read-out: Stability
[13] = Protein binding in plasma (unknown origin) assessed as unbound fraction at 2 uM incubated for 4 hrs under shaking condition by rapid equilibrium dialysis method; type: ADME, cell-free
[14] = Stability in human plasma assessed as parent compound remaining at 1 uM incubated for 24 hrs in presence of NADPH by LC-MS/MS analysis; type: ADME, cell-free; conditions: read-out: Stability
[15] = Lipophilicity, logP of compound by RP-HPLC analysis; type: physicochemical
[16] = Volume of distribution at steady state in Sprague-Dawley rat at 50 mg/kg, po measured for 1440 mins by LC-MS/MS analysis; type: ADME, organism-based; conditions: in vivo, 24 h
[17] = Clearance in Sprague-Dawley rat at 50 mg/kg, po measured for 1440 mins by LC-MS/MS analysis; type: ADME, organism-based; conditions: in vivo
[18] = system: 4T1; test: Antitumor activity against mouse 4T1 cells implanted in naive BALB/c mouse assessed as increase in Ki67-positive CD8 T cells in tumor at 80 mg/kg, po administered once every 5 days by FACS analysis (reference value: 14%); type: functional; conditions: time 5 day
[19] = Half life in Sprague-Dawley rat at 50 mg/kg, po measured for 1440 mins by LC-MS/MS analysis; type: ADME, organism-based; conditions: in vivo
[20] = AUC (0 to infinity) in Sprague-Dawley rat at 5 mg/kg, iv measured for 1440 mins by LC-MS/MS analysis; type: ADME, organism-based; set-up: dose 5 mg/kg, time 1440 min, route iv; conditions: in vivo
[21] = system: 4T1; test: Antitumor activity against mouse 4T1 cells implanted in naive BALB/c mouse assessed as increase in Ki67-positive CD4 T cells in tumor at 80 mg/kg, po administered once every 5 days by FACS analysis (reference value: 4.4%); type: functional; conditions: time 5 day
[22] = system: Stimulator of interferon genes protein (Homo sapiens), Q86WV6 [UNDEFINED MUTATION]; test: Binding affinity to recombinant human STING AQ variant expressed in Escherichia coli BL21 (DE3) assessed as thermal stabilization by measuring change in melting temperature at 0.1 mM incubated for 30 mins by SYPRO orange dye based differential scanning fluorimetry assay
[23] = Solubility of compound in PBS buffer at pH 7.4 at 3 mg incubated for 24 hrs under shaking condition by RP-HPLC analysis; type: physicochemical
[24] = target: hERG (Homo sapiens, UniProt Q12809); test: Inhibition of hERG expressed in HEK293 cells at 10 uM incubated for 5 mins by QPatch automated patch-clamp technique relative to control; type: toxicity, cell-based; conditions: HEK293 cells that express hERG
[25] = Volume of distribution at steady state in Sprague-Dawley rat at 5 mg/kg, iv measured for 1440 mins by LC-MS/MS analysis; type: ADME, organism-based; conditions: in vivo, read-out: Vdss
[26] = AUC (0 to infinity) in Sprague-Dawley rat at 50 mg/kg, po measured for 1440 mins by LC-MS/MS analysis; type: ADME, organism-based; set-up: time 1440 min, dose 50 mg/kg, route po; conditions: in vivo
[27] = target: CYP3A4 (Homo sapiens, UniProt P08684); test: Inhibition of recombinant CYP3A4 (unknown origin) using midazolam as substrate assessed as reduction in substrate hydroxylation at 10 uM incubated for 5 mins in presence of NADPH by LC-MS/MS analysis relative to control; type: ADME; conditions: recombinant CYP3A4, probe midazolam
[28] = system: Stimulator of interferon genes protein (Homo sapiens), Q86WV6 [UNDEFINED MUTATION]; test: Binding affinity to recombinant human STING R232 variant expressed in Escherichia coli BL21 (DE3) assessed as thermal stabilization by measuring change in melting temperature at 0.1 mM incubated for 30 mins by SYPRO orange dye based differential scanning fluorimetry assay

Sequence of Stimulator of interferon genes protein (Homo sapiens), Q86WV6 [UNDEFINED MUTATION] (Q86WV6 whole entry, looked up, stated change not applied): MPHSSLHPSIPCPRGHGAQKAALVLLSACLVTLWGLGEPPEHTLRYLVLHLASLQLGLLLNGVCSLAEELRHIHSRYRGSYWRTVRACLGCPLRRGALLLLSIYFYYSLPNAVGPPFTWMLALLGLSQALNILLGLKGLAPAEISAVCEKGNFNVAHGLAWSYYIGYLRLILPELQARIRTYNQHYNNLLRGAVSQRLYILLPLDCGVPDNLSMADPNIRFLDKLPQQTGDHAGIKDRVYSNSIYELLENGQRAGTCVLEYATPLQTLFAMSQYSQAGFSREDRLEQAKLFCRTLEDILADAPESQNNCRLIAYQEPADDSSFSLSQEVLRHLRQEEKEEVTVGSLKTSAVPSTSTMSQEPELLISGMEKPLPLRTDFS
T1 sequence (Q86WV6 whole entry): as the sequence (Q86WV6 whole entry, looked up, stated change not applied) above
Sequence of hERG (Q12809 whole entry): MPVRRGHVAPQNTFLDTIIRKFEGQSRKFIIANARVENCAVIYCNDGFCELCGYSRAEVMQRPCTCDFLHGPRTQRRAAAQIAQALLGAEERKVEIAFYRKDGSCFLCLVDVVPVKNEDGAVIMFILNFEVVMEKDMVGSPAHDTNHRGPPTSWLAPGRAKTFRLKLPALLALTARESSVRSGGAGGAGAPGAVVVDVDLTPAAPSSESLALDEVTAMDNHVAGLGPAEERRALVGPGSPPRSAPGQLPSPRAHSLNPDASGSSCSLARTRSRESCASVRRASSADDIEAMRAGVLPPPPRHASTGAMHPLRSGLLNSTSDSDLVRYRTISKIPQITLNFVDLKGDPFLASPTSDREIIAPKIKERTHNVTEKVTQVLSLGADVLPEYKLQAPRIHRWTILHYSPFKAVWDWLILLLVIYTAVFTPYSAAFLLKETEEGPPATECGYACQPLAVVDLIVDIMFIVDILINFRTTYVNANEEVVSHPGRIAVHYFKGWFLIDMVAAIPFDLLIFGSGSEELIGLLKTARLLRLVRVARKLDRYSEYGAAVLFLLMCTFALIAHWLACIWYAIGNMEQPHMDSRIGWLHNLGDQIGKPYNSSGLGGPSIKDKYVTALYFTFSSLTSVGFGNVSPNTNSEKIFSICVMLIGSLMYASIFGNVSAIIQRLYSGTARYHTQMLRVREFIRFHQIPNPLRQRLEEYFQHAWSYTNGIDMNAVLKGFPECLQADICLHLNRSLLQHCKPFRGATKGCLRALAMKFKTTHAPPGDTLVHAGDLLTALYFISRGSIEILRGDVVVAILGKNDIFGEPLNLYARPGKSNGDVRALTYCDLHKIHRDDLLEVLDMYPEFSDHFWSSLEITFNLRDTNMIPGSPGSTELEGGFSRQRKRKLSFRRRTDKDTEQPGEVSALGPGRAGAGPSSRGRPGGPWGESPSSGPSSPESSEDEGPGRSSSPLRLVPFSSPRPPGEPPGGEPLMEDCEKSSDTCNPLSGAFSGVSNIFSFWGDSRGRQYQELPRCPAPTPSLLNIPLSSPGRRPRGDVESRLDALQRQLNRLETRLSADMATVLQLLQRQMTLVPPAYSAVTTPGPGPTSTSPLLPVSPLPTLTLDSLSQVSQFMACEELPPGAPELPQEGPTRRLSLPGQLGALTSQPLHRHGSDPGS
Sequence of CYP3A4 (P08684 whole entry): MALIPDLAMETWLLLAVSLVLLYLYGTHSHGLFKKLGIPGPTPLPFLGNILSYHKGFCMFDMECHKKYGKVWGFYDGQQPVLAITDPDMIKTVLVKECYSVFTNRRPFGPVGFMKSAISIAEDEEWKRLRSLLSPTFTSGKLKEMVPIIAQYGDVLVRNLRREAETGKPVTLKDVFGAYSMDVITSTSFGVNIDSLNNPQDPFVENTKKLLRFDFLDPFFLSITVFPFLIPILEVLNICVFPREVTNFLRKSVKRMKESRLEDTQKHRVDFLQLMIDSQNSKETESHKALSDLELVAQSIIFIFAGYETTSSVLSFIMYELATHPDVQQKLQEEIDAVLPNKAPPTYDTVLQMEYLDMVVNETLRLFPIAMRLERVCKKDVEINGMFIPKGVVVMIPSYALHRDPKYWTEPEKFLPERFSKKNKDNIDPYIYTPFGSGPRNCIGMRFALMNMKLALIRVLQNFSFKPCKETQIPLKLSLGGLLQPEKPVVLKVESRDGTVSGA

For `COc1cc2cc(C(=O)CC(C(=O)O)C(C)C)[se]c2cc1OC` (racemic), the ΔTm [1] was -1.9 °C and the fold change (FC) [2] was 10.
In the case of `COc1ccc2[se]c(C(=O)CC(C)C(=O)O)cc2c1` (racemic), the ΔTm [1] was -0.3 °C.
Molecule `CCCC(CC(=O)c1cc2cc(OC)c(OC)cc2[se]1)C(=O)O` (racemic) has a ΔTm [1] of -1.2 °C and a fold change (FC) [2] of 14.
`CCC(CC(=O)c1cc2cc(OC)c(OC)cc2s1)C(=O)O` (racemic) showed a ΔTm [1] of 4.7 °C and a fold change (FC) [2] of 18.
With `CCC(=O)C(C)CC(=O)c1cc2cc(OC)c(OC)cc2[se]1` (stereo not given) the ΔTm [1] was -0.2 °C and the fold change (FC) [2] was 15.
In the case of `CC(CC(=O)c1cc2cc3c(cc2[se]1)OCO3)C(=O)O` (racemic), the ΔTm [1] was -0.5 °C.
In the case of `COCC(CC(=O)c1cc2cc(OC)c(OC)cc2[se]1)C(=O)O` (racemic), the ΔTm [1] was 0.9 °C and the fold change (FC) [2] was 7.
`CCC(CC(=O)c1cc2cc(OC)c(OC)cc2o1)C(=O)O` (racemic) showed a ΔTm [1] of -0.1 °C.
Molecule `COc1ccc2cc(C(=O)CC(C)C(=O)O)[se]c2c1` (racemic) has a ΔTm [1] of -0.1 °C.
With `COc1cc2cc(C(=O)C3CCC3C(=O)O)[se]c2cc1OC` (racemic) the ΔTm [1] was 9.1 °C and the fold change (FC) [2] was 24.
For `COc1cc2cc(C(=O)CC(C)C(=O)O)[se]c2cc1OC` (racemic), the pEC50 [3] was 4.67, the ΔTm [1] was 2.7 °C and the Activity [4] was “Active”. The Activity [5] was “Active” and the fold change (FC) [2] was 15.
For `COc1cc2cc(C(=O)CCC(=O)O)[se]c2cc1OC`, the ΔTm [1] was -1.1 °C and the fold change (FC) [2] was 2.
`CCC(CC(=O)c1cc2cc(OC)c(OC)cc2[se]1)C(=O)O` (racemic) gave a ΔTm [1] of 4.5 °C and a fold change (FC) [2] of 27.
Work on `COc1cc2cc(C(=O)C3CC3C(=O)O)[se]c2cc1OC` (racemic) yielded a ΔTm [1] of 6.2 °C and a fold change (FC) [2] of 7.
Work on `COc1cc2cc(C(=O)CC(C)(C)C(=O)O)[se]c2cc1OC` yielded a ΔTm [1] of -1.5 °C and a fold change (FC) [2] of 5.
With `COc1cc2cc(C(=O)CCC(=O)O)sc2cc1OC` the half-life [6] was 1.71 h, the Papp at 5 h [7] was 1.7 ×10⁻⁶ cm/s and the bioavailability [8] was 58%. For the same molecule, the ΔTm [1] was 3.9 °C, the Cmax [9] was 23300 ng/mL and the clearance [10] was 8.5 mL/min/kg. The solubility thermodynamic at 24 h [11] was 6 µg/mL (≈ 20.4 µM), the remaining at 2 h, 1 µM [12] was 87% and the Fu [13] was 0.19%. It also gave a remaining at 24 h, 1 µM [14] of 100%, a logP [15] of 1.5 and a Vdss [16] of 2.18 L/kg. It also gave a CL/F [17] of 15.2 mL/min/kg, an Activity [18] of 7.7% and a half-life [19] of 1.65 h. The AUC(0-inf) [20] was 9800 ng·h/mL, the Activity [21] was 5.5% and the ΔTm [22] was 23.3 °C. It also gave a fold change (FC) [2] of 32, a solubility thermodynamic at 24 h [23] of 300 µg/mL (≈ 1020 µM) and an inhibition at 5 min, 10 µM [24] of 0.86%. For the same molecule, the Vd [25] was 1.28 L/kg, the AUC(0-inf) [26] was 56800 ng·h/mL and the inhibition at 5 min, 10 µM [27] was 7.59%. It also gave a ΔTm [28] of 9.1 °C.
Molecule `COc1cc2cc(C(=O)CC(C)C(N)=O)[se]c2cc1OC` (racemic) has a ΔTm [1] of -0.8 °C.
